Values of other authors in paper PMC2096654 (Purinergic Signalling, 2006).

Biological target: T1, human A3 adenosine receptor (Homo sapiens, UniProt P0DMS8)
T1 sequence (P0DMS8 1-318): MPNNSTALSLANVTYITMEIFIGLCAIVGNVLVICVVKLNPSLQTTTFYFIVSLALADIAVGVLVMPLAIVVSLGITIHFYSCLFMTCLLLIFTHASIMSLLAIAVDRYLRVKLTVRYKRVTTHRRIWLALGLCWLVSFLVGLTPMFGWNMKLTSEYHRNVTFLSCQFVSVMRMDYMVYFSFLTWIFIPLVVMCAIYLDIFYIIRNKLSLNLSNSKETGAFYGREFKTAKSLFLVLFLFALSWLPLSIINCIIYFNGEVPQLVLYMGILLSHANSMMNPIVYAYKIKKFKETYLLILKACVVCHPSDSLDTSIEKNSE
Conditions: reference agonist

agonist behaviour at A3 receptor: full agonist
SMILES: CNC(=O)[C@H]1O[C@@H](n2cnc3c(NCc4cccc(I)c4)nc(Cl)nc32)[C@H](O)[C@@H]1O [Cl-IB-MECA, 2-chloro-N^6-(3-iodobenzyl)-5′methylcarboxamidoadenosine]
